Results reported in patent US20190046490A1, “METHODS OF TREATING LACTOSE INTOLERANCE” (Nogra Pharma Limited, priority 2016, published 2019).
“Also recorded” adds a separate entry of the source.

What was measured:
[1] = test system: DR2 response element of the human LCT gene promoter; test: Luciferase reporter gene assay with LCT promoter DR2 fragment in Caco-2 cells; assay type: cell-based
Procedure: A 321 bp genomic fragment (corresponding to the first 321 bp upstream to the transcription start site of the human lactase gene) was cloned in the pGL4-Luc reporter vector using XhoI and Hind III restriction sites introduced in “Hs-Prom-0.3 Kb sens” and “Hs-Prom-0.3 Kb anti-sens” oligonucleotides respectively. This construct and the empty vector control were transiently transfected in Caco-2 cells using Nucleofector™ Technology. Six hours post-transfection, cells were treated with PPARγ modulator for 12 hours. Luciferase activity was measured using the luciferase assay kit (Promega) in a Wallac Victor2 ™ 1420 multilabel counter (Perkin Elmer).

[2] = test system: LCT; test: LCT mRNA expression and activity in proximal small intestine of mice after oral GED; assay type: in vivo; details: weaned C57BL/6 mice, 30 mg/kg daily by gavage for 7 days
Procedure: (§1) Expression of genes of interest was quantified by quantitative PCR (qPCR) of corresponding reverse transcribed mRNA. One μg of total RNA was reverse-transcribed into cDNA using the High Capacity cDNA Archive kit (Applied Biosystems). Amplification was performed using an ABI PRISM 7000 sequence detection system (Applied Biosystem) using Power SYBR® Green PCR master Mix (Applied Biosystem). Primer pairs for each human transcript were chosen with qPrimer depot software (at primerdepot.nci.nih.gov.). Quantification of qPCR signals was performed using ΔCt relative quantification method using GAPDH as a reference gene for human and rat samples and β-Actin for mouse samples. Values were represented in terms of relative quantity of mRNA level variation or fold increase compared to control conditions.
(§2) Lactase activity was evaluated by using a glucose oxidase method (Glucose Assay Kit, Sigma). […] For Caco-2 cells, lactase activity was determined directly from the cell monolayer. […] The reaction was stopped with 100 μl of H2SO4 and read by spectrophotometry at 450 nm. When lactase activity was determined from intestinal sample, tissue samples were first dounce-homogenized in 0.9% NaCl on crushed ice. […] For each experiment, the background attributed to the remaining glucose in the samples was measured by incubating cells or cell extracts in lactose-free buffer. […]

[3] = test system: LCT activity; test: Lactase activity in Caco-2 cells (glucose oxidase method); assay type: cell-based, human; details: Caco-2 cells, 30 mM
Procedure: (§3) Lactase activity was evaluated by using a glucose oxidase method (Glucose Assay Kit, Sigma). This lactase assay is based on the measurement of the amount of glucose produced following the action of lactase by incubating samples with a lactose buffer solution (0.056 mol/l lactose in a 0.1 mol/l Na-maleate buffer). For Caco-2 cells, lactase activity was determined directly from the cell monolayer. After extensive washing, the cell monolayer was incubated with lactose buffer for one hour at 37° C. The supernatant was recovered, 50 μl were diluted with 100 μl of glucose oxidase reagent and incubated at 37° C. for 1 hour. The reaction was stopped with 100 μl of H2SO4 and read by spectrophotometry at 450 nm. When lactase activity was determined from intestinal sample, tissue samples were first dounce-homogenized in 0.9% NaCl on crushed ice. These homogenates were then diluted in 0.9% NaCl ( 1/500) and 50 μl of dilution were incubated with lactose buffer and used to determine lactase activity. For each experiment, the background attributed to the remaining glucose in the samples was measured by incubating cells or cell extracts in lactose-free buffer.

[4] = test system: LCT; test: LCT mRNA expression and activity in proximal small intestine of rats after oral GED; assay type: in vivo; details: weaned Sprague-Dawley rats, 30 mg/kg daily by gavage for 7 days
Procedure: as §1, §2

[5] = test system: LCT; test: LCT mRNA and LCT activity in duodenum and jejunum of rats after 5 days oral gavage; assay type: in vivo, Sprague Dawley rats
Procedure: as §1, §3
To determine whether CLA induces LCT expression and activity in vivo, Sprague Dawley rats were fed a control diet and administered either carboxymethyl cellulose (CMC; 0.5%), CLA, or GED for 5 days, after which levels of PPARγ mRNA, LCT mRNA, and LCT activity were measured. CLA was administered at 200 mg/kg/day by oral gavage, and GED was administered at 30 mg/kg/day by oral gavage (FIG. 21A).

[6] = test system: lactase; test: Lactase expression and activity in short term cultures of human duodenal biopsies; assay type: cell-based; details: exposure for 6 hours
[7] = oral gavage 5 days, GED 30 mg/kg/day, CLA 200 mg/kg/day

## COC(Cc1ccc(N)cc1)C(=O)O (stereo not shown) [GED, 3-(4′-aminophenyl)2-methoxypropionic acid]
[1]; Caco-2 cells transfected with pGL4Luc Prom LCT construct
  luciferase activity compared to untreated cells: significantly increased
[1]; Caco-2 cells with luciferase construct lacking the DR2 sequence (pGL4Luc)
  luciferase activity: No significant change
[2]
  LCT activity in the proximal part of the small intestine: significantly increased
  LCT expression in the proximal part of the small intestine: significantly increased
[3]
  LCT activity relative to control cells: significant increase; also recorded: significantly upregulated
[4]
  LCT activity in the proximal part of the small intestine: significantly increased
  LCT expression in the proximal part of the small intestine: significantly increased
[5]; 30 mg/kg/day oral gavage 5 days
  LCT activity in jejunal tissue compared to CMC control: significant increase
[5]; [7]
  LCT activity in duodenal tissue compared to CMC control: significant increase
  LCT mRNA expression in duodenal tissue relative to CMC control: significant increase
  LCT mRNA expression in jejunal tissue relative to CMC control: significant increase
[6]
  lactase expression: significant increase
[6]; data not shown
  lactase activity: significant increase
